These are literature values, as cited in patent publication US20160133992A1, “DRYING OF ELECTROLYTE MIXTURES CONTAINING ACIDS WITH MOLECULAR SIEVES” (BASF SE, priority 2013, published 2016).

Conditions in one data set: not given
The term pKa denotes the negative logarithm of the acid dissociation constant. In the case of `O=S(=O)(O)CCCCCO` [5-hydroxy-1-pentane sulfonic acid], the pKa entry is “below 4”.
For `CCCC(CCO)S(=O)(=O)O` (stereo not shown) [1-Propyl-gamma-hydroxy propane sulfonic acid], the pKa entry was “below 4”.
Take `CCC(CCCO)S(=O)(=O)O` (stereo not shown) [1-Ethyl-4-hydroxy-1-butane sulfonic acid]: the pKa entry is given as “below 4”.
As to `CCCCC(CCO)S(=O)(=O)O` (stereo not shown) [1-Butyl-gamma-hydroxy propane sulfonic acid], the pKa entry was “below 4”.
On to `CC(CCCO)S(=O)(=O)O` (stereo not shown) [1-Methyl-4-hydroxy-1-butane sulfonic acid], for which the pKa result is “below 4”.
On to `O=S(=O)(O)CCCCO` [4-hydroxy-1-butane sulfonic acid], for which the pKa is on record as −1,7.
For the compound `CCC(CCO)S(=O)(=O)O` (stereo not shown) [1-Ethyl-gamma-hydroxy propane sulfonic acid], the pKa result is given as “below 4”.
Consider `CCCCCCCCC(CCCO)S(=O)(=O)O` (stereo not shown) [1-Octyl-4-hydroxy-1-butane sulfonic acid], for which the pKa entry was “below 4”.
In the case of `CC(CCO)S(=O)(=O)O` (stereo not shown) [1-Methyl-gamma-hydroxy propane sulfonic acid], the pKa entry was “below 4”.

Still in this data set, the particulars now being: listed as compound of formula (b).
For the compound `O=S(=O)(O)CCCO` [gamma-hydroxy propane sulfonic acid], the pKa is recorded as −1.49.
